Measurements from patent publication US20090081704A1, “COMPOSITIONS, METHODS AND KITS FOR REAL-TIME ENZYME ASSAYS USING CHARGED MOLECULES” (priority 2004, published 2009).
K(Dye2) = not defined here; K(tet) = not defined here; code O = not defined here; C17 = C17 chain

How the values were obtained:
[1] = biological target: T1, MAP kinase1/Erk1 (Homo sapiens, UniProt P27361); test: Real-time kinase assay with hydrophobic molecule and myelin basic protein micelle; format: biochemical; conditions: FIG. 3B
T1 construct: purchased Upstate USA, Inc
Procedure: (§1) The compositions described herein are useful in the detection of enzymes. Real-time kinase assays for PKCβII, MAP kinase1/Erk1, and MAP kinase2/Erk2 using the hydrophobic molecule, C16OOOK(Dye 2)EEIYGEF-amide and charge-balance molecule, myelin basic protein with 0 or 100 μM ATP, are shown in FIGS. 3A-C.
(§2) A reaction solution (10 μl) was prepared containing the hydrophobic molecule C16OOOK(Dye2)EEIYGEF-amide (10 μM), and 10 μM charge-balance molecule Myelin Basic Protein (Upstate cat. no: 13-104), in 20 mM Tris buffer, pH 7.6, MgCl2 (5 mM), DTT (5 mM) and either PKCβII (0.15 ng/μl, Upstate USA, Inc.), MAP kinase1/Erk1 (1.5 ng/μl, Upstate USA, Inc.), or MAP kinase2/Erk2 (1.5 ng/μl, Upstate USA, Inc.). The solution was pipetted into wells of a 384-well plate (10 μL per well), Corning 384-well, black, non-binding surface (NBS), microwell plates. ATP (0 or 500 μM) was added to initiate the kinase reaction. Fluorescence was read in real-time every 2 minutes for 2 hours, at ambient temperature, using, Molecular Devices (Sunnyvale, Calif.) Analyst GT, with excitation and emission set at 485 and 535 nm respectively.

[2] = biological target: T2, MAP kinase2/Erk2 (Homo sapiens, UniProt P28482); test: as above; format: biochemical; conditions: FIG. 3C
T2 construct: purchased Upstate USA, Inc
Procedure: as §1, §2

[3] = biological target: T3, PKCβII (Homo sapiens, UniProt P05771); test: as above; format: biochemical; conditions: FIG. 3A
T3 construct: purchased Upstate USA, Inc
Procedure: as §1, §2

[4] = cited from earlier work; for Monera et al. Hydrophobicity at pH 7: normalized, phenylalanine 100, glycine 0
[5] = cited from earlier work
[6] = Freeze fracture electron microscopy of micelles; format: physicochemical; conditions: 25 mM Tris pH 7.6; for micelle form seen in electron micrograph: FIGS. 1A-B
From the text: Micelle formation can be detected in a variety of ways, including fluorescence titration of the molecules in detergent, and dynamic laser light scattering. Additionally, direct visual evidence of micelle formation, and micelle disruption by adding a charged group, can be obtained by freeze fracturing electron microscopy. For example, FIG. 1A is an electron micrograph of micelles comprising the hydrophobic molecule, C17OOOK(tet)RQGSFRA-amide. […] “Tet” is a fluorescent moiety provided by 2′,7′,4,7-tetachloro-5-carboxy fluorescein (2′,7-dichloro-5-carboxy-4,7-dichlorofluorescein). OOO represents optional O-spacers comprising (bis)ethylene glycol group(s). […] FIG. 1B is an electron micrograph of micelles comprising a phosphorylated hydrophobic molecule, C17OOOK(tet)RQGS(p)FRA-amide. […] Thus, the addition of two negative charges to the hydrophobic molecule, results in micelle disruption and deaggregation.
For freeze fracture electron microscopy, the hydrophobic molecule, C17OOO K(tet)RQGSFRA-amide phosphorylated hydrophobic molecule C17OOOK (tet)RQGS(p)FRA-amide were each dissolved in 25 mM Tris (pH 7.6), 5 mM MgCl and 5 mM DTT. The samples were frozen in liquid nitrogen-cooled propane. […] The fracturing process was carried out in a JEOL JED-9000 freeze-etching machine and the exposed fractured planes were shadowed with Pt for thirty seconds at an angle of 25-35 C and with carbon for 35 seconds (2 kV/60-70 mA, 1×10^−5 Torr). The replicas produced were cleaned with concentrated chloroform/methanol (1:1 by volume) at least five times. The cleaned replicas were examined with a JEOL 1000CX or Philips CM 10 electron microscope.

[7] = biological target: T3, PKCβII; test: Inhibition of PKCβII in real-time micelle kinase assay; format: biochemical; conditions: FIGS. 5A-B, IC50 only in figures
Procedure: A reaction solution (10 μl) was prepared containing the hydrophobic molecule C16OOOK(Dye2)EEIYGEF-amide (10 μM), and 10 μM charge-balance molecule Myelin Basic Protein (Upstate USA, Inc. cat. no: 13-104), in 20 mM Tris buffer, pH 7.6, MgCl2 (5 mM), DTT (5 mM), 10% Lipid Activator (Upstate USA, Inc), and PKCβII (0.15 ng/μl, Upstate USA, Inc.). The solution was pipetted into wells of a 384-well plate (10 μL per well), Corning 384-well, black, non-binding surface (NBS), microwell plates. […] ATP (10 μM) was added to initiate the kinase reaction. Fluorescence was read in real-time every 2 minutes for 2 hours, at ambient temperature, using, Molecular Devices (Sunnyvale, Calif.) Analyst GT, with excitation and emission set at 485 and 535 nm respectively.

T3 sequence (P05771 1-673 isoform P05771-2): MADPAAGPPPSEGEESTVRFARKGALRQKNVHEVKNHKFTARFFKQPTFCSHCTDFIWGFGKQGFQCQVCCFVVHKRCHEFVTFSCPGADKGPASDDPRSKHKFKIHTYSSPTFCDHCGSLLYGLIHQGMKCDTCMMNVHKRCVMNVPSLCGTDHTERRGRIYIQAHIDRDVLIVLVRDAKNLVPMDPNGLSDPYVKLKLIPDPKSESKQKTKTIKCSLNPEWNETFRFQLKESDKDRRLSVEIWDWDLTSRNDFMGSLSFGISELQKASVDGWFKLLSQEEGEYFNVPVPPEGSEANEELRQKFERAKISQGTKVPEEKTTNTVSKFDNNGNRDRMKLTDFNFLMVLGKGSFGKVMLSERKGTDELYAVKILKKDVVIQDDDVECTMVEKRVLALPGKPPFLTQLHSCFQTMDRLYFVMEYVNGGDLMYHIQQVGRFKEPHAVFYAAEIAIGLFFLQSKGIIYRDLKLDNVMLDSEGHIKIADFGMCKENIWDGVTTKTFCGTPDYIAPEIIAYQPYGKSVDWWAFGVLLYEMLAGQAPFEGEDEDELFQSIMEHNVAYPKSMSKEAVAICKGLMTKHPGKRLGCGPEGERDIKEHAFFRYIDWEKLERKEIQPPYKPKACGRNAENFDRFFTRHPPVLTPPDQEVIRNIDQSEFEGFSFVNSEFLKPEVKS
T2 sequence (P28482 whole entry): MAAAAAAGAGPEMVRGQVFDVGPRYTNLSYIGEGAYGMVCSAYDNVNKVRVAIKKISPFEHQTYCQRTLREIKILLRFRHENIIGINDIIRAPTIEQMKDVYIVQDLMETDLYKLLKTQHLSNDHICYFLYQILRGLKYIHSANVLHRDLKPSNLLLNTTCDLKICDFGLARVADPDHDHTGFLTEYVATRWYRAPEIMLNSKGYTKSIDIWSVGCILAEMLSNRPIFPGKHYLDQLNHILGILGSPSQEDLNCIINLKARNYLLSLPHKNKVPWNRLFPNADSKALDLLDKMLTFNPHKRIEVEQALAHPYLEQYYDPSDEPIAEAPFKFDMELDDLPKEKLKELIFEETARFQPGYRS
T1 sequence (P27361 whole entry): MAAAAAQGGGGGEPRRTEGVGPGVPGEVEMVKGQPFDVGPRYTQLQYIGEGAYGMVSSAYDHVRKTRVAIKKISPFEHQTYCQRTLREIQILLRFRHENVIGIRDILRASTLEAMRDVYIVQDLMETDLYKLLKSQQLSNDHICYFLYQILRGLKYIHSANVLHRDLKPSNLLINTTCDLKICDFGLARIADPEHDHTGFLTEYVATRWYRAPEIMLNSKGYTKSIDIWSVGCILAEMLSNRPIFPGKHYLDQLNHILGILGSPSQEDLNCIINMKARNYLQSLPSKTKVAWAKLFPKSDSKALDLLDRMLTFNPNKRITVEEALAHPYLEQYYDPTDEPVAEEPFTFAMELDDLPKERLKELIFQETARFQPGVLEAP

Compound	α-COOH pKa [5]	Monera et al. Hydrophobicity at pH 7 [4]	α-NH3+ pKa [5]	other results
C16OOOK(Dye2)EEIYGEF-amide ({C16-code O-code O-code O-K(Dye2)}-EEIYGEF-NH2; reading uncertain; also: printed as C16OOOK(Dye2)EEIYGEF-amide) [C16OOOK(Dye 2)EEIYGEF-amide, hydrophobic molecule: C16 carbon chain, O-spacers, lysine-linked 5-carboxy-2′,7′-dipyridyl-sulfonefluorescein, peptide EEIYGEF-amide]	–	–	–	increase in fluorescence over time on addition of enzyme [1]: greater than 4 fold; increase in fluorescence over time on addition of enzyme [2]: greater than 4 fold; increase in fluorescence over time on addition of enzyme [3]: greater than 4 fold
O=C(O)[C@@H]1CCCN1 [Proline (P), Proline]	2.1	–	–	Monera et al. Hydrophobicity ([4]; pH 2): −46 (pH 2)
N[C@@H](Cc1c[nH]c2ccccc12)C(=O)O [Tryptophan (W), Tryptophan]	2.4	97	–	–
NC(=O)C[C@H](N)C(=O)O [Asparagine (N), Asparagine]	2.0	−28	8.8	–
N[C@@H](Cc1c[nH]cn1)C(=O)O [Histidine (H), Histidine]	–	8	–	–
C17OOOK(tet)RQGS(p)FRA-amide	–	–	–	micelle form seen in electron micrograph [6]: only form small spheres and small clusters of spheres
N[C@@H](Cc1ccccc1)C(=O)O [Phenylalanine (F), Phenylalanine]	–	100	–	–
CC(C)[C@H](N)C(=O)O [Valine (V), Valine]	–	76	–	–
N=C(N)NCCC[C@H](N)C(=O)O [Arginine (R), Arginine]	2.2	–	–	–
NCCCC[C@H](N)C(=O)O [Lysine (K), Lysine]	–	−23	9.0	–
O=S(=O)(NCCNC/C=C/c1ccc(Br)cc1)c1cccc2cnccc12 [H98, H89]	–	–	–	effect of increasing concentrations of enzyme inhibitor on fluorescence [7]: decrease in fluorescence
C17OOOK(tet)RQGSFRA-amide ({C17-code O-code O-code O-K(tet)}-RQGSFRA-NH2; reading uncertain; also: printed as C17OOOK(tet)RQGSFRA-amide) [hydrophobic molecule: C17 carbon chain, O-spacers, lysine-linked tet fluorescein dye, peptide RQGSFRA-amide]	–	–	–	micelle form seen in electron micrograph [6]: cylindrical or tubular micelles; diameter of cylindrical or tubular micelles ([6]; electron micrograph FIG. 1A): 20-60 nm; length of cylindrical or tubular micelles ([6]; electron micrograph FIG. 1A): 200-1000 nm
N[C@@H](Cc1ccc(O)cc1)C(=O)O [Tyrosine (Y), Tyrosine]	–	63	–	–
N[C@@H](CS)C(=O)O [Cysteine (C), Cysteine]	–	49	–	Side chain pKa [5]: about 8
C[C@H](N)C(=O)O [Alanine (A), Alanine]	2.4	41	–	–
N[C@@H](CO)C(=O)O [Serine (S), Serine]	–	−5	9.2	Side chain pKa [5]: ~13
CC[C@H](C)[C@H](N)C(=O)O [Isoleucine (I), Isoleucine]	2.4	99	9.7	–
CSCC[C@H](N)C(=O)O [Methionine (M), Methionine]	2.3	74	9.2	–
C[C@@H](O)[C@H](N)C(=O)O [Threonine (T), Threonine]	2.6	–	10.4	Side chain pKa [5]: ~13
